Source: patent publication US9969698B2, “Quinoxalinyl-piperazinamide methods of use” (REXAHN PHARMACEUTICALS, INC., priority 2015, dated 2018)

System: ovarian tumor xenograft (SK-OV3)
Experiment: Ovarian tumor xenograft model
Type: in vivo, mice
Conditions: oral, 5ON/2OFF
Description: The efficacy of RX-5902 in human cancer xenograft mouse models is examined. Female nude mice (nu/nu, Harlan or CRL: NU(NCr)-Foxn1^nu, Charles River), 9-10 weeks old, with a body weight (BW) range of 15-30 g on day 1 of the study, are fed ad libitum water (reverse osmosis, 1 ppm C1), and NIH 31 Modified and Irradiated Lab Diet® consisting of 18.0% crude protein, 5.0% crude fat, and 5.0% crude fiber. The mice are housed on irradiated Enrich-o'Cobs™ Laboratory Animal Bedding in static microisolators on a 12-hour light cycle at 20-22° C. (68-72° F.) and 40-60% humidity. […]
The cells are harvested during exponential growth and re-suspended with phosphate buffered saline. Each test animal receives a subcutaneous (s.c.) injection of 5×10^6 tumor cells into the right flank and tumor growth is monitored as the average tumor size approaches the target range of 80-300 mm^3. […] Tumors and body weights are measured regularly until the study is terminated.
Tumors are measured in two dimensions using calipers, and volume is calculated using the formula: […]
Treatment efficacy is determined using data from Day 15. The MTV (n), the median tumor volume for the number of animals, n, on Day 15, is determined for each group. […]
Animals are monitored individually for tumor growth until Day 71. […] The time to endpoint (TTE) for each mouse is calculated with the following equation: […]

With `COc1cc(OC)cc(N2CCN(C(=O)Nc3nc4cc(F)ccc4nc3OC)CC2)c1` [RX-5902, 4-(3,5-dimethoxyphenyl)-N-(7-fluoro-3-methoxyquinoxalin-2-yl)piperazine-1-carboxamide] the TGD % (40 mg/kg) was 6%^ and the TGD % (70 mg/kg) was 49%^.
